From ChEMBL document CHEMBL5260848, “Recent advancements in the development of bioactive pyrazoline derivatives” (Eur J Med Chem, 2020)
Converted amounts (≈) assume the structure as drawn.

Tests used:
Carbonic anhydrase 1 = Carbonic anhydrase 1 (Homo sapiens, UniProt P00915)
Carbonic anhydrase 9 = Carbonic anhydrase 9 (Homo sapiens, UniProt Q16790); test: Inhibition of human CA9
Carbonic anhydrase 12 = Carbonic anhydrase 12 (Homo sapiens, UniProt O43570); test: Inhibition of human CA12
Carbonic anhydrase 2 = Carbonic anhydrase 2 (Homo sapiens, UniProt P00918)
Acetylcholinesterase = Acetylcholinesterase (Homo sapiens, UniProt P22303)
Sequence of Acetylcholinesterase (P22303 whole entry): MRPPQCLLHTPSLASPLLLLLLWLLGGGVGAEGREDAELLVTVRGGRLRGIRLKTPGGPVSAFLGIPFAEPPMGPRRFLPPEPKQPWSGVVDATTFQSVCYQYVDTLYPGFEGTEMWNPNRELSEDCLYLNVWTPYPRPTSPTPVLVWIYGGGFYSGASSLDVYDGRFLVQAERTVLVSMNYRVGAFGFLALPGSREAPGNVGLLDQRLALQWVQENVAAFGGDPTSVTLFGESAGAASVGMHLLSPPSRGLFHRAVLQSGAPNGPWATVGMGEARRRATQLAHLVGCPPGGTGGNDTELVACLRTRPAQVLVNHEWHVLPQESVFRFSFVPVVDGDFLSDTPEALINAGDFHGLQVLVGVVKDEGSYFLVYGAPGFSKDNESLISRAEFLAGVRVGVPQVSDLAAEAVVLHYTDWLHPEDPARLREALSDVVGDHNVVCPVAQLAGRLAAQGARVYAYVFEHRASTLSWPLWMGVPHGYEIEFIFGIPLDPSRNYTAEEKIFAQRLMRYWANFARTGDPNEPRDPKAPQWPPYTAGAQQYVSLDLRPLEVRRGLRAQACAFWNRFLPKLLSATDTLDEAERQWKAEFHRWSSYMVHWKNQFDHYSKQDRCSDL

Plasmodium falciparum = test: Antimalarial activity against chloroquine-sensitive Plasmodium falciparum NF54 measured after 72 hrs by giemsa staining based analysis; type: functional, organism-based; details: NF54, 72 h
HepG2 = test: cells; details: Homo sapiens
[1] = test system: Mycobacterium tuberculosis; test: microbe, parasite or virus in culture; details: H37Rv
[2] = Growth inhibition of human Panel NCI-58 (58 carcinoma cell lines) cells by SRB method; type: functional
[3] = Cytotoxicity against human Panel NCI-58 (58 carcinoma cell lines) cells by SRB method; type: functional; details: read-out: LC50 (the source's name)
Mus musculus [4] = species on record: Mus musculus; test: Antidepressant activity in Swiss albino mouse assessed as decrease in immobility time by forced swimming test; type: functional
Mus musculus [5] = species on record: Mus musculus; test: Antidepressant activity in Swiss albino mouse assessed as decrease in immobility time by tail suspension test; type: functional
[6] = test system: Bordetella bronchiseptica; test: Antibacterial activity against Bordetella bronchiseptica ATCC 4617 by plate dilution method; type: functional
Staphylococcus aureus [7] = test: Antibacterial activity against Staphylococcus aureus ATCC 25923 by plate dilution method; type: functional
Enterococcus faecalis = test: Antibacterial activity against Enterococcus faecalis ATCC 29212 by plate dilution method; type: functional
[8] = test system: Staphylococcus epidermidis; test: Antibacterial activity against Staphylococcus epidermidis ATCC 12228 by plate dilution method; type: functional
Bacillus subtilis [9] = test: Antibacterial activity against Bacillus subtilis ATCC 6633 by plate dilution method; type: functional
Bacillus cereus = test: Antibacterial activity against Bacillus cereus ATCC 9946 by plate dilution method; type: functional
Escherichia coli [10] = test: Antibacterial activity against Escherichia coli ATCC 25922 by plate dilution method; type: functional
Pseudomonas aeruginosa [11] = test: Antibacterial activity against Pseudomonas aeruginosa ATCC 27853 by plate dilution method; type: functional
Klebsiella pneumoniae = test: Antibacterial activity against Klebsiella pneumoniae ATCC 700603 by plate dilution method; type: functional
Proteus vulgaris = test: Antibacterial activity against Proteus vulgaris ATCC 9920 by plate dilution method; type: functional
Candida albicans = test: Antifungal activity against Candida albicans assessed as reduction in microbial growth; type: functional
Cryptococcus neoformans = test: Antifungal activity against Cryptococcus neoformans assessed as reduction in microbial growth; type: functional
[12] = Cytotoxicity against human Panel NCI-58 (58 carcinoma cell lines) cells; type: functional
Pseudomonas aeruginosa [13] = test: Potency index, ratio of ampicillin MIC to compound MIC for Pseudomonas aeruginosa by agar dilution method; type: functional
Escherichia coli [14] = test: Antibacterial activity against Escherichia coli by agar dilution method; type: functional
Pseudomonas aeruginosa [15] = test: Antibacterial activity against Pseudomonas aeruginosa by agar dilution method; type: functional
Staphylococcus aureus [16] = test: Antibacterial activity against Staphylococcus aureus by agar dilution method; type: functional
Bacillus subtilis [17] = test: Antibacterial activity against Bacillus subtilis by agar dilution method; type: functional

Sequence of Carbonic anhydrase 12 (O43570 whole entry): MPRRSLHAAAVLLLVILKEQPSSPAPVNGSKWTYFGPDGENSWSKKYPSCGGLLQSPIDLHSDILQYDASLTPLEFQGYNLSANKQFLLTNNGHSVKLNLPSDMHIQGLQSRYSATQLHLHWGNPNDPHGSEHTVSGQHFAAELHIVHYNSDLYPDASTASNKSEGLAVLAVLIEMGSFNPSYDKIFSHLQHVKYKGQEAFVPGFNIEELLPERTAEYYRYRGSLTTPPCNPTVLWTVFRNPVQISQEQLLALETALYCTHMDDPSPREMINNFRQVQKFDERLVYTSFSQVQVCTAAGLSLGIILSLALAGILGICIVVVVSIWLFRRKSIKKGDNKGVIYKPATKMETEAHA
Sequence of Carbonic anhydrase 1 (P00915 whole entry): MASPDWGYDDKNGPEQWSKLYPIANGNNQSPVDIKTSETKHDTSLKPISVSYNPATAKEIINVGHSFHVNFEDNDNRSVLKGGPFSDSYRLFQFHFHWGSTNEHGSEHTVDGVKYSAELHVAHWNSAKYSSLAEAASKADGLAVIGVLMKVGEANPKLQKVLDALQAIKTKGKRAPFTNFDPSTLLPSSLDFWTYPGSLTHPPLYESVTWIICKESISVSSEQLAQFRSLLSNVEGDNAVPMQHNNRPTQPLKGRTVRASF

`COc1ccc(C2=NN(C(=O)c3ccc(S(N)(=O)=O)cc3)C(c3ccccc3)C2)c(OC)c1` (stereo not drawn) gave a Ki (Carbonic anhydrase 1) of 87.8 nM, a Ki (Carbonic anhydrase 9) of 5.5 nM and a Ki (Carbonic anhydrase 12) of 7.1 nM. It also gave a Ki (Carbonic anhydrase 2) of 31.7 nM.

`Cc1ccc2cc(C3CC(c4sccc4Cl)=NN3)c(Cl)nc2c1` (stereo not drawn) showed an IC50 (Acetylcholinesterase) of 200 nM.

In the case of `COc1cc(C)c(/C=C/C(=O)c2cc(OC)c(OC)c(OC)c2)cc1C(C)C`, the IC50 (Plasmodium falciparum) is reported as under 2000 nM.

Work on `COc1ccc(C2=CC(c3cc(C(C)C)c(OC)cc3C)N(C(=O)OC(C)C)N2C(=O)OC(C)C)cc1OC` (stereo not drawn) yielded an IC50 (Plasmodium falciparum) of under 2000 nM.

In the case of `COc1cc(C2CC(c3ccccc3O)=NN2c2cc3ccccc3s2)cc(OC)c1O` (stereo not drawn), the IC50 (HepG2) is reported as 3570 nM.

Compound `NS(=O)(=O)c1ccc(C(=O)N2N=C(c3ccccc3)CC2c2ccc(F)cc2)cc1` (stereo not drawn) has a Ki (Carbonic anhydrase 1) of 87.8 nM, a Ki (Carbonic anhydrase 12) of 7.1 nM and a Ki (Carbonic anhydrase 2) of 31.7 nM.

For `NNC(=O)c1ccncc1` [ISONIAZID], the MIC [1] was 6.25 µg/mL (≈ 45.6 µM).

For `Cc1ccc(C(=O)/C=C/c2ccc(N3CCCCC3)cc2)s1`, the IC50 (Acetylcholinesterase) was 130 nM.

Compound `OCCNc1nc(NCCO)nc(Nc2ccc(C3=NN(c4cc(Cl)cc(Cl)c4)C(c4ccc(C(F)(F)F)cc4)C3)cc2)n1` (stereo not drawn) has a GI50 [2] of 569 nM and a CC50 [3] of 5150 nM.

Compound `Cc1ccc2cc(C3CC(c4cc(Cl)sc4Cl)=NN3)c(Cl)nc2c1` (stereo not drawn) has an IC50 (Acetylcholinesterase) of 150 nM.

`COc1cc(C2CC(c3ccc(Nc4nc(NCCO)nc(NCCO)n4)cc3)=NN2c2cc(Cl)cc(Cl)c2)cc(OC)c1OC` (stereo not drawn) showed a GI50 [2] of 569 nM and a CC50 [3] of 5150 nM.

With `OCCNc1nc(NCCO)nc(Nc2ccc(C3=NN(c4cc(Cl)cc(Cl)c4)C(c4ccc(Cl)cc4)C3)cc2)n1` (stereo not drawn) the GI50 [2] was 569 nM and the CC50 [3] was 5150 nM.

For `Cc1nc(-c2cc(F)cc(F)c2)ccc1C1=NNC(c2c(F)cccc2Cl)C1` (stereo not drawn), the Time (Mus musculus [4]) was 66.67 s, the Time (Mus musculus [5]) was 70.33 s and the MIC [1] was 12.5 µg/mL (≈ 31.1 µM).

For `O=c1oc2ccc(I)cc2cc1-c1csc(N2N=C(c3ccccc3F)CC2c2cc3ccccc3nc2Cl)n1` (stereo not drawn), the MIC [6] was 50 µg/mL (≈ 73.6 µM).

`COc1ccc(C2CC(c3ccc(-c4cc(F)cc(F)c4)nc3C)=NN2)cc1OC` (stereo not drawn) showed a Time (Mus musculus [4]) of 66.67 s, a Time (Mus musculus [5]) of 70.33 s and an MIC [1] of 12.5 µg/mL (≈ 30.5 µM).

In the case of `CC(=O)N1N=C(c2nnn(-c3ccc(-n4nnc(C5=NN(C(C)=O)C(c6ccccc6)C5)c4C)cc3)c2C)CC1c1ccccc1` (stereo not drawn), the IC50 (HepG2) is reported as 57.1 µg/mL.

Work on `NS(=O)(=O)c1ccc(C(=O)N2N=C(c3ccc(F)cc3)CC2c2ccc(F)cc2)cc1` (stereo not drawn) yielded a Ki (Carbonic anhydrase 1) of 87.8 nM, a Ki (Carbonic anhydrase 9) of 5.5 nM and a Ki (Carbonic anhydrase 12) of 7.1 nM. It also gave a Ki (Carbonic anhydrase 2) of 31.7 nM.

`O=c1oc2ccc(F)cc2cc1-c1csc(N2N=C(c3cccc(F)c3)CC2c2cc3ccccc3nc2Cl)n1` (stereo not drawn) showed an MIC [6] of 50 µg/mL (≈ 87.6 µM), an MIC (Staphylococcus aureus [7]) of 50 µg/mL (≈ 87.6 µM) and an MIC (Enterococcus faecalis) of 50 µg/mL (≈ 87.6 µM). It also gave an MIC [8] of 50 µg/mL (≈ 87.6 µM), an MIC (Bacillus subtilis [9]) of 50 µg/mL (≈ 87.6 µM) and an MIC (Bacillus cereus) of 50 µg/mL (≈ 87.6 µM). For the same compound, the MIC (Escherichia coli [10]) was 50 µg/mL (≈ 87.6 µM), the MIC (Pseudomonas aeruginosa [11]) was 50 µg/mL (≈ 87.6 µM) and the MIC (Klebsiella pneumoniae) was 50 µg/mL (≈ 87.6 µM). The MIC (Proteus vulgaris) was 50 µg/mL (≈ 87.6 µM).

Compound `NS(=O)(=O)c1ccc(C(=O)N2N=C(c3ccc(F)cc3)CC2c2ccccc2)cc1` (stereo not drawn) has a Ki (Carbonic anhydrase 1) of 87.8 nM, a Ki (Carbonic anhydrase 9) of 5.5 nM and a Ki (Carbonic anhydrase 12) of 7.1 nM. For the same compound, the Ki (Carbonic anhydrase 2) was 31.7 nM.

For `COc1ccc(C2CC(c3cccc(Nc4ccnc5cc(Cl)ccc45)c3)=NN2c2ccccc2)cc1` (stereo not drawn), the MIC50 (Candida albicans) was 3.9 µg/mL, the MIC50 (Cryptococcus neoformans) was 3.9 µg/mL and the GI50 [12] was under 1000 nM.

With `COc1cccc2cc(C3CC(c4cc(Br)ccc4O)=NN3)c3nnnn3c12` (stereo not drawn) the Ratio (Pseudomonas aeruginosa [13]) was 2.

Work on `COc1cc(C)c(/C=C/C(=O)c2ccc(Br)cc2)cc1C(C)C` yielded an IC50 (Plasmodium falciparum) of under 2000 nM.

For `COc1ccc(C2CC(c3cccc(Nc4ccnc5cc(Cl)ccc45)c3)=NN2c2ccc(Cl)cc2)cc1` (stereo not drawn), the MIC50 (Candida albicans) was 3.9 µg/mL, the MIC50 (Cryptococcus neoformans) was under 3.9 µg/mL and the MIC (Cryptococcus neoformans; read-out: MIC100) was under 3.9 µg/mL. It also gave a GI50 [12] of under 1000 nM.

In the case of `Cc1nc(-c2ccc(Br)cc2)ccc1C1=NNC(c2c(F)cccc2Cl)C1` (stereo not drawn), the Time (Mus musculus [4]) is reported as 66.67 s, the Time (Mus musculus [5]) is reported as 70.33 s and the MIC [1] is reported as 12.5 µg/mL (≈ 28.1 µM).

`O=c1oc2ccc(F)cc2cc1-c1csc(N2N=C(c3ccccc3F)CC2c2cc3ccccc3nc2Cl)n1` (stereo not drawn) showed an MIC [6] of 50 µg/mL (≈ 87.6 µM), an MIC (Staphylococcus aureus [7]) of 50 µg/mL (≈ 87.6 µM) and an MIC (Enterococcus faecalis) of 50 µg/mL (≈ 87.6 µM). The MIC [8] was 50 µg/mL (≈ 87.6 µM), the MIC (Bacillus subtilis [9]) was 50 µg/mL (≈ 87.6 µM) and the MIC (Bacillus cereus) was 50 µg/mL (≈ 87.6 µM). The MIC (Escherichia coli [10]) was 50 µg/mL (≈ 87.6 µM), the MIC (Pseudomonas aeruginosa [11]) was 50 µg/mL (≈ 87.6 µM) and the MIC (Klebsiella pneumoniae) was 50 µg/mL (≈ 87.6 µM). The MIC (Proteus vulgaris) was 50 µg/mL (≈ 87.6 µM).

`Oc1ccc(Br)cc1C1=NOC(c2cc3ccccc3n3nnnc23)C1` (stereo not drawn) gave an MIC (Escherichia coli [14]) of 25 µg/mL (≈ 60.9 µM), an MIC (Pseudomonas aeruginosa [15]) of 25 µg/mL (≈ 60.9 µM) and an MIC (Staphylococcus aureus [16]) of 25 µg/mL (≈ 60.9 µM). The MIC (Bacillus subtilis [17]) was 25 µg/mL (≈ 60.9 µM).

`O=C(/C=C/c1ccc(N2CCCCC2)cc1)c1sccc1Cl` showed an IC50 (Acetylcholinesterase) of 160 nM.
